pIC50: −log10 of the molar value.
These compounds were tested against SARS-CoV-2 MPRO (Severe acute respiratory syndrome coronavirus 2 (2019-nCoV) (SARS-CoV-2), UniProt P0DTD1) (assay: SARS-CoV-2 Mpro enzymatic assay (FRET substrate cleavage)). Details: C-His6-tagged SARS-CoV-2 MPRO 25 nM, 30 min pre-incubation at RT, 60 min at 30° C., 10 doses from 25 μM; read-out: M pro IC50.
Format: biochemical

**Q.** With `C[C@](C(=O)NC1CCC(F)(F)CC1)(c1cncnc1)N(C(=O)[C@H](F)Cl)c1ccc(-c2cncs2)cc1` (single isomer, unassigned) [Example 1a] as the compound, how does the pIC50 read?
**A.** > 7.00

**Q.** How did the pIC50 turn out when `C[C@@](C(=O)NC1CCOCC1)(c1cncc(F)c1)N(C(=O)[C@H](F)Cl)c1ccc(OC(F)(F)Cl)cc1` [Example 98b] was run?
**A.** 5.00 to 6.00

**Q.** `C[C@](C(=O)NC1CCC(F)(F)CC1)(c1cncc(F)c1)N(C(=O)[C@H](F)Cl)c1ccc(OC(F)(F)Cl)cc1` [Example 99a] was tested. Which pIC50 did it give?
**A.** > 7.00

**Q.** `C[C@@](C(=O)NC1CCC(F)(F)CC1)(c1cncc(F)c1)N(C(=O)[C@H](F)Cl)c1ccc(OC(F)(F)Cl)cc1` [Example 99b] was tested. Which pIC50 did it give?
**A.** 5.00 to 6.00

**Q.** `C[C@](C(=O)NC1CCC(F)(F)CC1)(c1cncnc1)N(C(=O)[C@H](F)Cl)c1ccc(-c2nccs2)cc1` [Example 100a] was tested. Which pIC50 did it give?
**A.** > 7.00

**Q.** How did the pIC50 turn out when `C[C@@](C(=O)NC1CCC(F)(F)CC1)(c1cncnc1)N(C(=O)[C@H](F)Cl)c1ccc(-c2nccs2)cc1` [Example 100b] was run?
**A.** 6.00 to 7.00

**Q.** How did the pIC50 turn out when `C[C@](C(=O)NC1CCOCC1)(c1cncnc1)N(C(=O)[C@H](F)Cl)c1ccc(-c2nccs2)cc1` [Example 101a] was run?
**A.** > 7.00

**Q.** How did the pIC50 turn out when `C[C@](C(=O)NC1CCC(F)(F)CC1)(c1cncc(F)c1)N(C(=O)[C@H](F)Cl)c1ccc(-c2nccs2)cc1` [Example 102a] was run?
**A.** > 7.00

**Q.** `C[C@@](C(=O)NC1CCC(F)(F)CC1)(c1cncc(F)c1)N(C(=O)[C@H](F)Cl)c1ccc(-c2nccs2)cc1` [Example 102b] was tested. Which pIC50 did it give?
**A.** 6.00 to 7.00

**Q.** `C[C@](C(=O)NC1CCOCC1)(c1cncc(F)c1)N(C(=O)[C@H](F)Cl)c1ccc(-c2nccs2)cc1` [Example 103a] was tested. Which pIC50 did it give?
**A.** > 7.00

**Q.** `C[C@@](C(=O)NC1CCOCC1)(c1cncc(F)c1)N(C(=O)[C@H](F)Cl)c1ccc(-c2nccs2)cc1` [Example 103b] was tested. Which pIC50 did it give?
**A.** < 5.00

**Q.** How did the pIC50 turn out when `C[C@](C(=O)NC1CCC(F)(F)CC1)(c1cccnc1)N(C(=O)[C@H](F)Cl)c1ccc(SC(F)(F)F)cc1` [Example 104a] was run?
**A.** > 7.00

**Q.** How did the pIC50 turn out when `C[C@@](C(=O)NC1CCC(F)(F)CC1)(c1cccnc1)N(C(=O)[C@H](F)Cl)c1ccc(SC(F)(F)F)cc1` [Example 104b] was run?
**A.** 5.00 to 6.00

**Q.** With `C[C@](C(=O)NC1CCOCC1)(c1cccnc1)N(C(=O)[C@H](F)Cl)c1ccc(SC(F)(F)F)cc1` [Example 105a] as the compound, how does the pIC50 read?
**A.** > 7.00

**Q.** How did the pIC50 turn out when `C[C@@](C(=O)NC1CCOCC1)(c1cccnc1)N(C(=O)[C@H](F)Cl)c1ccc(SC(F)(F)F)cc1` [Example 105b] was run?
**A.** < 5.00

**Q.** How did the pIC50 turn out when `C[C@](C(=O)NC1CCC2(CC1)COC2)(c1cncnc1)N(C(=O)[C@H](F)Cl)c1ccc(OC(F)(F)F)cc1` [Example 107a] was run?
**A.** > 7.00

**Q.** `C[C@](C(=O)NC1CCOCC1)(c1cncnc1)N(C(=O)[C@H](F)Cl)c1ccc(C(F)(F)C(F)(F)F)cc1` [Example 108a] was tested. Which pIC50 did it give?
**A.** 6.00 to 7.00

**Q.** With `C[C@@](C(=O)NC1CCOCC1)(c1cncnc1)N(C(=O)[C@H](F)Cl)c1ccc(C(F)(F)C(F)(F)F)cc1` [Example 108b] as the compound, how does the pIC50 read?
**A.** < 5.00

**Q.** `C[C@](C(=O)Nc1ccc(Cl)cc1F)(c1cncnc1)N(C(=O)[C@H](F)Cl)c1ccc(OC(F)(F)F)cc1` [Example 110a] was tested. Which pIC50 did it give?
**A.** > 7.00

**Q.** How did the pIC50 turn out when `C[C@@](C(=O)Nc1ccc(Cl)cc1F)(c1cncnc1)N(C(=O)[C@H](F)Cl)c1ccc(OC(F)(F)F)cc1` [Example 110b] was run?
**A.** 5.00 to 6.00

**Q.** How did the pIC50 turn out when `C[C@](C(=O)NC1CCOCC1)(c1cccnc1)N(C(=O)[C@H](F)Cl)c1ccc(OC(F)(F)Cl)cc1` [Example 111a] was run?
**A.** > 7.00

**Q.** `C[C@@](C(=O)NC1CCOCC1)(c1cccnc1)N(C(=O)[C@H](F)Cl)c1ccc(OC(F)(F)Cl)cc1` [Example 111b] was tested. Which pIC50 did it give?
**A.** < 5.00

**Q.** How did the pIC50 turn out when `C[C@](C(=O)NC1CCC(F)(F)CC1)(c1cncnc1)N(C(=O)[C@H](F)Cl)c1cccc(OC(F)(F)F)c1` [Example 112a] was run?
**A.** 6.00 to 7.00

**Q.** `C[C@@](C(=O)NC1CCC(F)(F)CC1)(c1cncnc1)N(C(=O)[C@H](F)Cl)c1cccc(OC(F)(F)F)c1` [Example 112b] was tested. Which pIC50 did it give?
**A.** < 5.00

**Q.** `C[C@](C(=O)NC1CCC(F)(F)CC1)(c1cncnc1)N(C(=O)[C@H](F)Cl)c1ccc2c(c1)OC(F)(F)O2` [Example 113a] was tested. Which pIC50 did it give?
**A.** > 7.00

**Q.** `C[C@@](C(=O)NC1CCC(F)(F)CC1)(c1cncnc1)N(C(=O)[C@H](F)Cl)c1ccc2c(c1)OC(F)(F)O2` [Example 113b] was tested. Which pIC50 did it give?
**A.** < 5.00

**Q.** With `C[C@](C(=O)NC1CCOCC1)(c1cncnc1)N(C(=O)C(Cl)Cl)c1ccc(OC(F)(F)Cl)cc1` [Example 115a] as the compound, how does the pIC50 read?
**A.** > 7.00

**Q.** `C[C@@](C(=O)NC1CCOCC1)(c1cncnc1)N(C(=O)C(Cl)Cl)c1ccc(OC(F)(F)Cl)cc1` [Example 115b] was tested. Which pIC50 did it give?
**A.** 5.00 to 6.00

Same assay, conditions: M pro IC50, C-His6-tagged SARS-CoV-2 MPRO 25 nM, 30 min pre-incubation at RT, 60 min at 30° C., 10 doses from 25 μM

**Q.** With `C[C@](C(=O)N[C@@H]1CC[C@H](NC(=O)C(F)(F)F)C1)(c1cncc(F)c1)N(C(=O)[C@H](F)Cl)c1ccc(OC(F)(F)F)cc1` [Example 109a] as the compound, how does the pIC50 read?
**A.** > 7.00

**Q.** `C[C@@](C(=O)N[C@@H]1CC[C@H](NC(=O)C(F)(F)F)C1)(c1cncc(F)c1)N(C(=O)[C@H](F)Cl)c1ccc(OC(F)(F)F)cc1` [Example 109b] was tested. Which pIC50 did it give?
**A.** 5.00 to 6.00

What follows are compounds tested on SARS-CoV-2 (assay: In vitro antiviral cell-based assay (live SARS-CoV-2), plaque reduction assay in VeroE6 cells). Details: Severe acute respiratory syndrome coronavirus 2, Vero C1008, footnote key printed as IC50 (nM).

**Q.** With `C[C@](C(=O)NC1CCC(F)(F)CC1)(c1cncnc1)N(C(=O)[C@H](F)Cl)c1ccc(-c2cncs2)cc1` (single isomer, unassigned) [Example 1a] as the compound, how does the EC50 read?
**A.** 100 to 1000 nM
